Source: patent US8796289B2 (AbbVie Inc., priority 2011, dated 2014)

Molecular target: GST-tagged-Wee1 kinase (Homo sapiens, UniProt P30291)
Assay: Wee1 time-resolved fluorescence equilibrium binding assay (displacement of Oregon Green-labeled ATP-competitive kinase probe)
Conditions: not given
Procedure: Wee1 kinase was assayed using a time-resolved fluorescence equilibrium binding assay monitoring displacement of a rapidly reversible Oregon Green-labeled ATP-competitive kinase probe (N-(2-(2-(2-(4-(4-(5-chloro-4-(2-(1-hydroxycyclobutyl)thiazol-5-yl)-1H-pyrrolo[2,3-b]pyridin-2-yl)phenyl)piperazin-1-yl)ethoxy)ethoxy)ethyl)-2′,7′-difluoro-3′,6′-dihydroxy-3-oxo-3H-spiro[isobenzofuran-1,9′-xanthene]-5-carboxamide) by competitive Wee1 inhibitors.

Sequence of GST-tagged-Wee1 kinase (P30291 whole entry): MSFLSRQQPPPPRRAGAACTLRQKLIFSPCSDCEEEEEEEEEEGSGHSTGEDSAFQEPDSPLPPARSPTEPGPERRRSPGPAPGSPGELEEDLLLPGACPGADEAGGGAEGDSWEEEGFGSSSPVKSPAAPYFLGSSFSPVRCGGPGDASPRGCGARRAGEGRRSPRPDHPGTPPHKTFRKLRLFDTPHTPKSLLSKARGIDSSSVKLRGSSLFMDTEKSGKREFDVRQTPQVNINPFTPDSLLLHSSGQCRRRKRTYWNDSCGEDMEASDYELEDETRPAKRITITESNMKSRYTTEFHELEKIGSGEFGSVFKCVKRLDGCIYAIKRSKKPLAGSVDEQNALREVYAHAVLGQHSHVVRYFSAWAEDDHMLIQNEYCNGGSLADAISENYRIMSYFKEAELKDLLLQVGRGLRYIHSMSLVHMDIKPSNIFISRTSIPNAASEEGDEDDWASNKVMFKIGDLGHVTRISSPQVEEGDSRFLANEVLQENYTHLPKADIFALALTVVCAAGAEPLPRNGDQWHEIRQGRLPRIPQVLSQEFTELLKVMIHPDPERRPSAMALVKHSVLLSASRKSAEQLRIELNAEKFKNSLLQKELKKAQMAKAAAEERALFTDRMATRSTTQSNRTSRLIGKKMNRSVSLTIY

Compared with `O=c1c2cnc(Nc3ccc4c(c3)CNCC4)nc2c(C(F)(F)F)nn1-c1c(Cl)cccc1Cl` [Example 421, 6-(2,6-dichlorophenyl)-2-(1,2,3,4-tetrahydroisoquinolin-7-ylamino)-8-(trifluoromethyl)pyrimido[4,5-d]pyridazin-5(6H)-one], `O=c1c2cnc(Nc3ccc4c(c3)CNCC4)nc2c(C(F)F)nn1-c1c(Cl)cccc1Cl` [Example 410, 6-(2,6-dichlorophenyl)-8-(difluoromethyl)-2-(1,2,3,4-tetrahydroisoquinolin-7-ylamino)pyrimido[4,5-d]pyridazin-5(6H)-one] is 2-fold higher in Ki: 0.5 nM for the first, 1 nM for the second.

`CN1CCN(c2ccc(Nc3ncc4c(=O)n(-c5c(Cl)cccc5Cl)nc(-c5cccc(C#N)c5)c4n3)cc2)CC1` [Example 89, 3-[6-(2,6-dichlorophenyl)-2-{[4-(4-methylpiperazin-1-yl)phenyl]amino}-5-oxo-5,6-dihydropyrimido[4,5-d]pyridazin-8-yl]benzonitrile] and `CN1CCN(c2ccc(Nc3ncc4c(=O)n(-c5c(Cl)cccc5Cl)nc(-c5cccc(C(=O)N6CCC6)c5)c4n3)cc2)CC1` [Example 216, 8-[3-(azetidin-1-ylcarbonyl)phenyl]-6-(2,6-dichlorophenyl)-2-{[4-(4-methylpiperazin-1-yl)phenyl]amino}pyrimido[4,5-d]pyridazin-5(6H)-one] are within 1.5-fold of each other in Ki: 0.07 nM for the first, 0.1 nM for the second.

`Cc1nn(-c2c(Cl)cccc2Cl)c(=O)c2cnc(Nc3cccc(C(=O)NC4CCC(N(C)C)CC4)c3)nc12` (centres unmarked) [Example 520, 3-{[6-(2,6-dichlorophenyl)-8-methyl-5-oxo-5,6-dihydropyrimido[4,5-d]pyridazin-2-yl]amino}-N-[4-(dimethylamino)cyclohexyl]benzamide] and `Cc1nn(-c2c(Cl)cccc2Cl)c(=O)c2cnc(Nc3ccc(N4CCNC(=O)C4)cc3)nc12` [Example 442, 6-(2,6-dichlorophenyl)-8-methyl-2-{[4-(3-oxopiperazin-1-yl)phenyl]amino}pyrimido[4,5-d]pyridazin-5(6H)-one] are within 1.5-fold of each other in Ki: 0.45 nM for the first, 0.46 nM for the second.

Going from `CC1(C)CNCc2cc(Nc3ncc4c(=O)n(C5CCCCC5)nc(-c5ccccn5)c4n3)ccc21` [Example 294, 6-cyclohexyl-2-[(4,4-dimethyl-1,2,3,4-tetrahydroisoquinolin-7-yl)amino]-8-(pyridin-2-yl)pyrimido[4,5-d]pyridazin-5(6H)-one] to `Cc1nn(-c2ccccc2Cl)c(=O)c2cnc(Nc3ccc4c(c3)CNCC4(C)C)nc12` [Example 482, 6-(2-chlorophenyl)-2-[(4,4-dimethyl-1,2,3,4-tetrahydroisoquinolin-7-yl)amino]-8-methylpyrimido[4,5-d]pyridazin-5(6H)-one], the Ki falls from 629 nM to 0.31 nM (2000-fold). The second binds more tightly here.

Going from `CN1Cc2cc(Nc3ncc4c(=O)n(-c5c(Cl)cccc5Cl)nc(-c5cccnc5)c4n3)ccc2C2(CC2)C1` [Example 101, 6-(2,6-dichlorophenyl)-2-[(2′-methyl-2′,3′-dihydro-1′H-spiro[cyclopropane-1,4′-isoquinolin]-7′-yl)amino]-8-(pyridin-3-yl)pyrimido[4,5-d]pyridazin-5(6H)-one] to `Cc1ccccc1-n1nc(-c2ccccc2)c2nc(Nc3ccc4c(c3)CN(C)CC43CC3)ncc2c1=O` [Example 173, 2-[(2′-methyl-2′,3′-dihydro-1′H-spiro[cyclopropane-1,4′-isoquinolin]-7′-yl)amino]-6-(2-methylphenyl)-8-phenylpyrimido[4,5-d]pyridazin-5(6H)-one], the Ki rises from 0.02 nM to 0.4 nM (20-fold).

`CCNCCn1cc(-c2nn(-c3c(Cl)cccc3Cl)c(=O)c3cnc(Nc4ccc(N5CCN(C)CC5)cc4)nc23)cn1` [Example 202, 6-(2,6-dichlorophenyl)-8-{1-[2-(ethylamino)ethyl]-1H-pyrazol-4-yl}-2-{[4-(4-methylpiperazin-1-yl)phenyl]amino}pyrimido[4,5-d]pyridazin-5(6H)-one] and `C=Cn1ccc(-c2nn(-c3c(Cl)cccc3Cl)c(=O)c3cnc(Nc4ccc(N5CCN(C)CC5)cc4)nc23)n1` [Example 236, 6-(2,6-dichlorophenyl)-8-(1-ethenyl-1H-pyrazol-3-yl)-2-{[4-(4-methylpiperazin-1-yl)phenyl]amino}pyrimido[4,5-d]pyridazin-5(6H)-one] cannot be ordered by Ki: 0.3 nM for the first, < 1 nM for the second.

Going from `COc1cc(Nc2ncc3c(=O)n(-c4ccccc4C)nc(-c4ccccc4)c3n2)ccc1N1CCN(C(C)C)CC1` [Example 113, 2-{[4-(4-isopropylpiperazin-1-yl)-3-methoxyphenyl]amino}-6-(2-methylphenyl)-8-phenylpyrimido[4,5-d]pyridazin-5(6H)-one] to `CN1CCN(c2ccc(Nc3ncc4c(=O)n(C)nc(-c5ccccc5)c4n3)cc2)CC1` [Example 3, 6-methyl-2-{[4-(4-methylpiperazin-1-yl)phenyl]amino}-8-phenylpyrimido[4,5-d]pyridazin-5(6H)-one], the Ki rises from 0.4 nM to 180 nM (450-fold). The first binds more tightly here.

Going from `Cc1nn(C)c(=O)c2cnc(Nc3ccc(N4CCN(C)CC4)cc3)nc12` [Example 1, 6,8-dimethyl-2-{[4-(4-methylpiperazin-1-yl)phenyl]amino}pyrimido[4,5-d]pyridazin-5(6H)-one] to `CCCc1nn(CCC#N)c(=O)c2cnc(Nc3ccc(N4CCN(C)CC4)cc3)nc12` [Example 21, 3-[2-{[4-(4-methylpiperazin-1-yl)phenyl]amino}-5-oxo-8-propylpyrimido[4,5-d]pyridazin-6(5H)-yl]propanenitrile], the Ki falls from 1900 nM to 350 nM (5.4-fold).

Going from `C=CCn1nc(-c2cccs2)c2nc(Nc3ccc(S(=O)(=O)N4CCOCC4)cc3)ncc2c1=O` [Example 125, 6-allyl-2-{[4-(morpholin-4-ylsulfonyl)phenyl]amino}-8-(2-thienyl)pyrimido[4,5-d]pyridazin-5(6H)-one] to `C=CCn1nc(-c2cccs2)c2nc(Nc3ccc(N4CCCC4=O)cc3)ncc2c1=O` [Example 124, 6-allyl-2-{[4-(2-oxopyrrolidin-1-yl)phenyl]amino}-8-(2-thienyl)pyrimido[4,5-d]pyridazin-5(6H)-one], the Ki falls from > 3140 nM to 75 nM. The second binds more tightly here.

`CCc1nn(-c2c(Cl)cccc2Cl)c(=O)c2cnc(Nc3ccc4c(c3)C(C)(C)N(C)CC4)nc12` [Example 461, 6-(2,6-dichlorophenyl)-8-ethyl-2-[(1,1,2-trimethyl-1,2,3,4-tetrahydroisoquinolin-7-yl)amino]pyrimido[4,5-d]pyridazin-5(6H)-one] and `CCc1nn(-c2c(Cl)cccc2Cl)c(=O)c2cnc(Nc3ccc4c(c3)CCN(C)C4)nc12` [Example 492, 6-(2,6-dichlorophenyl)-8-ethyl-2-[(2-methyl-1,2,3,4-tetrahydroisoquinolin-6-yl)amino]pyrimido[4,5-d]pyridazin-5(6H)-one] are within 1.5-fold of each other in Ki: 0.68 nM for the first, 0.56 nM for the second.

First: CCOc1ncccc1-c1nn(-c2ccccc2)c(=O)c2cnc(Nc3ccc(N4CCN(C)CC4)cc3)nc12 [Example 79, 8-(2-ethoxypyridin-3-yl)-2-{[4-(4-methylpiperazin-1-yl)phenyl]amino}-6-phenylpyrimido[4,5-d]pyridazin-5(6H)-one]
Second: Cc1ccccc1-n1nc(C2CCCC2)c2nc(Nc3ccc(N4CCN(C)CC4)cc3)ncc2c1=O [Example 49, 8-cyclopentyl-6-(2-methylphenyl)-2-{[4-(4-methylpiperazin-1-yl)phenyl]amino}pyrimido[4,5-d]pyridazin-5(6H)-one]
The Ki of the first is 79-fold higher: 710 nM for the first, 9 nM for the second. The second binds more tightly here.

Same assay, conditions: read-out: Wee-1 inhibition Ki

In the case of “3-{[6-(2,6-dichlorophenyl)-8-methyl-5-oxo-5,6-dihydropyrimido[4,5-d]pyridazin-2-yl]amino}benzoic acid [Example 521]”, the Ki is reported as 97 nM.
